Data on seven compounds can be found in patent US6509343B1 (priority 1996, dated 2003).

Format in all cases: in vivo
For one assay, the system named is Pyrenophora teres. The experiment in a line: Pyrenophora teres test (barley)/curative. To be noted: 6.25 g/ha, curative, 7 days after inoculation. On the procedure:
Solvent: 25 parts by weight of N,N-dimethylacetamide
Emulsifier: 0.6 part by weight of alkylaryl polyglycol ether
To produce a suitable preparation of active compound, 1 part by weight of active compound or active compound combination is mixed with the stated amounts of solvent and emulsifier, and the concentrate is diluted with water to the desired concentration.
To test for curative activity, young plants are sprayed with a conidia suspension of Pyrenophora teres. The plants remain in an incubation cabin at 20° C. and 100% relative atmospheric humidity for 48 hours. The plants are subsequently sprayed with the preparation of active compound at the stated application rate.
The plants are placed in a greenhouse at a temperature of about 20° C. and a relative atmospheric humidity of about 80%.
Evaluation is carried out 7 days after the inoculation. 0% means an efficacy which corresponds to that of the control, whereas an efficacy of 100% means that no infection is observed.

For the next assay, the system named is Fusarium nivale. Description: Fusarium nivale test (triticale)/seed treatment. The conditions noted are these: about 3 weeks after sowing. As for the experimental part: The active compounds are applied as a dry seed dressing. This is prepared by extending the respective active compound with ground mineral to give a finely pulverulent mixture which ensures uniform distribution on the seed surface.
To dress the seed, the infected seed together with the seed dressing is shaken for 3 minutes in a sealed glass flask.
2×100 corns of triticale are sown at a depth of 1 cm in standard soil and cultivated in a greenhouse at a temperature of about 10° C. and a relative atmospheric humidity of about 95% in seed trays which receive a light regimen of 15 hours per day.
About 3 weeks after sowing, the plants are evaluated for symptoms of snow mould. 0% means an efficacy which corresponds to that of the untreated control, while an efficacy of 100% means that no disease is observed.

In another assay the test system is Phytophthora infestans. The experiment in a line: whole plant or invertebrate.
The mark [1] stands for this setting: Phytophthora infestans, in Solanum lycopersicum, 72 h, read-out: % efficacy.

As for `CC(C)(C)C(O)C(Oc1ccc(Cl)cc1)n1cncn1` (stereo not shown) [(F), triadimenol], the Efficacy in % in the assay with Pyrenophora teres turned out to be 0%.
As to `N#Cc1c[nH]cc1-c1cccc(Cl)c1Cl` [(Fenpiclonil) z, fenpiclonil], in the assay with Fusarium nivale (75 mg/kg of seed), the Efficacy in % was found to be 67%.
Turning to `CON=C(C1=NOCCO1)c1ccccc1Oc1ncnc(Oc2ccccc2Cl)c1F` [(I)], the Efficacy in % in the assay with Pyrenophora teres turned out to be 0%.
In the assay with Fusarium nivale (25 mg/kg of seed), `O=C(Nc1ccccc1)N(Cc1ccc(Cl)cc1)C1CCCC1` [(Pencycuron) P, pencycuron] showed an Efficacy in % of 29%.
Turning to `CCC1(C(=O)NC(C)c2ccc(Cl)cc2)C(C)C1(Cl)Cl` [(ω), N-(R)-[1-(4-chloro-phenyl)-ethyl]-2,2-dichloro-1ethyl-3t-methyl-1r-cyclopropane-carboxamide], the Emax at 5 g/ha in the assay with Phytophthora infestans (setting [1]) is 3%.
Turning to `CCNC(=O)NC(=O)/C(C#N)=N/OC` [Cymoxanil (M), cymoxanil], the “% efficacy” value with Phytophthora infestans (in vivo) was 12%.
With `COc1ccc(/C(=C\C(=O)N2CCOCC2)c2ccc(Cl)cc2)cc1OC` [Dimetomorph (L), dimetomorph], in the assay with Phytophthora infestans (setting [1]), the Emax at 1 g/ha was 0%.
